According to PMC10052652 (Molecules, 2023):

Columns and labels:
[1] = DPPH radical scavenging assay
Protocol: DPPH• (1-1-diphenyl 2-picryl hydrazyl) assay
This method is based on the spectrophotometric assay using the stable radical, DPPH•, as a reagent. First, 20 µL of each sample (4 mg/mL) was mixed with 180 µL of 0.1 mM DPPH• in methanol, in plates, after an incubation of 25 min in the dark. Absorbance was measured at 517 nm. Ascorbic acid was used as the reference compound. The radical-scavenging activities of molecules, expressed as a percentage inhibition of DPPH•, were calculated according to the following formula: Inhibition (%) = [(A control − A sample)/A control] × 100 where A is the absorbance determined at 517 nm. The absorbance of the solvent and DPPH• radical without the molecule was measured as the control.

[2] = ABTS radical cation scavenging assay
Protocol: ABTS (2,2′-azinobis-3-ethylbenzothiazoline-6-sulfonate) assay
The radical scavenging capacity of antioxidants for the ABTS radical cation was evaluated following this method: ABTS was prepared by adding 7 mM solution of ABTS at pH 7.4 (5 mM NaH2PO4, 5 mM Na2HPO4, and 154 mM NaCl) with 2.5 mM potassium persulfate. The mixture was stored at room temperature for 16 h in the dark before use and prepared […]. Once diluted with persulfate buffer, the absorbance of the mixture yielded an absorbance value of 0.70 ± 0.05 units at 734 nm. Then, 20 µL of each tested sample was mixed with fresh ABTS solution (180 µL), then the absorbance was measured 6 min after the initial mixing. Ascorbic acid was used as a standard. The capacity of free radical scavenging was expressed as a percentage of the inhibition values. The percentage of inhibition is calculated using the same expression employed in the DPPH assay.

[3] = biological target: T1, acetylcholinesterase (AChE) (Homo sapiens, UniProt P22303); assay: biochemical
T1 sequence (P22303 32-614, species assumed): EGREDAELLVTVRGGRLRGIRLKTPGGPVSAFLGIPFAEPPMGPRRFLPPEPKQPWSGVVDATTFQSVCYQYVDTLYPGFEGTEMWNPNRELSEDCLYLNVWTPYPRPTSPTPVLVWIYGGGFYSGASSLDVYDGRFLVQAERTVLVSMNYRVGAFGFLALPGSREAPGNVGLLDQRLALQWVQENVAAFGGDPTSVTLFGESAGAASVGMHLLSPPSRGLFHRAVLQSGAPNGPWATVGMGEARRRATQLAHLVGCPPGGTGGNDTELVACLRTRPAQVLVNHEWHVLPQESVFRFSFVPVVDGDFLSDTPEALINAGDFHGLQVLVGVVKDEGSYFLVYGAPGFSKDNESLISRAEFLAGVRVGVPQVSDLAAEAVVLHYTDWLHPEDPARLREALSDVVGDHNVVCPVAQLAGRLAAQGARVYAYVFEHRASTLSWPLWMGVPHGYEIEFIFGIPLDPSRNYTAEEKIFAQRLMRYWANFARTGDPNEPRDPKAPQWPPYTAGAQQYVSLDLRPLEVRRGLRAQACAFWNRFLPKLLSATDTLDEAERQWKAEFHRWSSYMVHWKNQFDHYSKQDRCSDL
Protocol: The enzymatic activity was assessed via a modified colorimetric Ellman′s method. First, 50 µL of Tris-HCl buffer (pH 8), 25µL of a buffer solution of the sample (50 µg/mL), and 25 µL of an acetylcholinesterase (AChE) enzyme solution containing 2.8 U/mL were mixed. A reaction was then initiated via the addition of 125 µL of 3 mM […]. After incubation for 15 min at 25 °C, 25 µL of a solution of iodide acetylthiocholine15 mM was added to a 96-well microplate. […] Inhibition (%) was calculated in the following way: Inhibition (%) = [(A control − A sample)/A control] × 100, where (A sample) is the absorbance of the molecule containing the reaction and (A control) is the absorbance of the reaction control. Tests were carried out in triplicate.

[4] = biological target: T2, superoxide dismutase (SOD) (Homo sapiens, UniProt P00441); assay: biochemical; conditions: read-out: Anti SOD IC50
T2 sequence (P00441 whole entry): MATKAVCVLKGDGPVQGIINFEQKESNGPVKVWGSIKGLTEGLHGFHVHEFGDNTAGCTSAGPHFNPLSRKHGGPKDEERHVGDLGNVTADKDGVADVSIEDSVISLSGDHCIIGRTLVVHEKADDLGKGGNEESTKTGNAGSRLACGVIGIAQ
Protocol: Pyrogallol auto-oxidation due to oxygen in the air can be inhibited by an enzyme that is naturally present in the body: superoxide dismutase (SOD). Furthermore, variations in the pyrogallol auto-oxidation rate in the presence of SOD were evaluated. Tests were carried out in triplicate. The objective was to find an inhibitor of the auto-oxidation of pyrogallol in the presence of a SOD enzyme solution. Samples were tested at a concentration of 50 µg/mL, followed by incubation for 4 min at 25 °C. […] The self-oxidation of pyrogallol was evaluated in the absence of the enzyme. For this, 30 µL of pyrogallol was added to 120 µL of tris buffer (in place of the SOD) (pH 8.5), then followed by the same steps of incubating a positive control (without the molecule); this was performed in the presence of 5% of DMSO to evaluate the percentage of SOD inhibition activity on the auto-oxidation of pyrogallol.

xanthine oxidase (XOD) [5] = biological target: T3, xanthine oxidase (XOD) (Homo sapiens, UniProt P47989); assay: biochemical; conditions: read-out: Anti XOD IC50
T3 sequence (P47989 whole entry, species assumed): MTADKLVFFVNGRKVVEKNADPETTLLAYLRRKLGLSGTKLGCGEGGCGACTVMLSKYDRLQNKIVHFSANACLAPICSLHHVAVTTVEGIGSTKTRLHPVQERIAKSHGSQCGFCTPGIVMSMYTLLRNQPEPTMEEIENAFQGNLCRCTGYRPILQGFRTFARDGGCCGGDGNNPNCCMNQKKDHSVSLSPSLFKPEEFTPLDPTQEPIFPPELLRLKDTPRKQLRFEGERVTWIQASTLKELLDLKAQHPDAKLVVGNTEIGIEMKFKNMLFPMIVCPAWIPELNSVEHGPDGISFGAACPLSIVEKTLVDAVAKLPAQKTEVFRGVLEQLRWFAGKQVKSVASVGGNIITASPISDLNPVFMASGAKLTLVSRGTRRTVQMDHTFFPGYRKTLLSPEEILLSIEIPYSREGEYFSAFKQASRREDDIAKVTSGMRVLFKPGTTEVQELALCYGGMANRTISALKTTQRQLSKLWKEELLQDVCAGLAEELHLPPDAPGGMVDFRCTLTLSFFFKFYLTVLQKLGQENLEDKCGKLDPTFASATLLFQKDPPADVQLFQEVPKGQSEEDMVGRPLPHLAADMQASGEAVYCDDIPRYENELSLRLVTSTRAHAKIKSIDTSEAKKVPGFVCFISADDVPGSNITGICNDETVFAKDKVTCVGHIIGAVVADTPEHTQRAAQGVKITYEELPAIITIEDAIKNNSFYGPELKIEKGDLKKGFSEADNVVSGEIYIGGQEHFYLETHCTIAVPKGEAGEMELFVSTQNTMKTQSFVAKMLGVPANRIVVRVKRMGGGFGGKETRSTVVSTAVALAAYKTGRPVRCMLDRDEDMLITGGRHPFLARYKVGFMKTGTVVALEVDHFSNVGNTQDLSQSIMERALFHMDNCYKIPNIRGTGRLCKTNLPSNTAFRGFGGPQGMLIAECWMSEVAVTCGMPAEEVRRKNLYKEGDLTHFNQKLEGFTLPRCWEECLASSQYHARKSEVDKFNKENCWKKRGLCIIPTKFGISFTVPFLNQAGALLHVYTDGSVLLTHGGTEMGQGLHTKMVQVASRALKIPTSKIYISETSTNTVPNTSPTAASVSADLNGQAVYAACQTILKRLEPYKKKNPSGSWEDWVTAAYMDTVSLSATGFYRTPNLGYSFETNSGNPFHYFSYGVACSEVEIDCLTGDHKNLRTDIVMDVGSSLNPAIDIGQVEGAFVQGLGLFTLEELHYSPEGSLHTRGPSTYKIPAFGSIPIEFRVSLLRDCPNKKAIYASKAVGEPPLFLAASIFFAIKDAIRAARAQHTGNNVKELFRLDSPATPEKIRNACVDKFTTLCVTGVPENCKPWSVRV
Protocol: Anti-xanthine oxidase activity was assayed spectrophotometrically under aerobic conditions. First, 50 µL (50 µg/mL) of samples were added to 60 µL of phosphate buffer (pH 7.5) and 30 µL of xanthine oxidase enzyme solution (0.01 units/mL in phosphate buffer; pH 7.5). After pre-incubation at 25 °C for 15 min, the reaction was initiated by the addition of 60 µL of xanthine substrate solution (prepared in the same buffer). The assay mixture was incubated at 25 °C for 5 min. […] The assay was performed in triplicate. […] Tests were carried out in triplicate.

HCT116 cells = assay: Cytotoxic activity, MTT assay, HCT116; assay type: cell-based, human; conditions: Homo sapiens, HCT-116, 72 h, read-out: IC50 HCT116, MTT, 72 h
Protocol: (§1) The cancer cell lines used in this study were HCT116 (colorectal carcinoma), IGROV1 (ovarian cancer), OVCAR3 (ovarian cancer), and MCF7 (mammary gland/breast cancer). […] Cell lines were maintained in culture and were incubated at 37 °C in an incubator with 5% CO2 in a humidified atmosphere. All tests were established at 80% of confluence, and viability was estimated with a trypan blue exclusion assay.
(§2) The cytotoxic activities of molecules against cancer cell lines were evaluated using an MTT assay. The MTT colorimetric assay was performed using 96-well plates. Cells were seeded in a 96-well plate, at a concentration of 10 × 10^3 cells/well for HCT116 and 12 × 10^3 cells/well for MCF7, IGROV1, and OVAR. Adherent cells were dispatched and incubated at 37 °C overnight in a 5% CO2-enriched atmosphere. […] After that, the medium was removed, and cells were treated with 50 µL of 3-(4,5-dimethylthazolk-2-yl)-2,5-diphenyl tetrazolium bromide (MTT) solution (3 mg/mL in PBS) at 37 °C for 20 to 40 min. To dissolve the […], we added 80 µL of 100% DMSO. Optical density was measured at 540 nm. All tests were established in triplicate. […]

MCF7 cells = assay: Cytotoxic activity, MTT assay, MCF7; assay type: cell-based, human; conditions: Homo sapiens, MCF7, 72 h
Protocol: Optical density was measured at 540 nm. All tests were established in triplicate.

OVCAR-3 cells = assay: Cytotoxic activity, MTT assay, OVCAR-3; assay type: cell-based; conditions: Homo sapiens, OVCAR-3, 72 h, read-out: IC50 OVCAR-3
Protocol: as §1, §2

SKOV-3 cells = assay: Cytotoxic activity, MTT assay, SKOV-3; assay type: cell-based, human; conditions: Homo sapiens, SK-OV-3, 72 h, read-out: IC50 SKOV-3, MTT, 72 h
[6] = biological target: T1, acetylcholinesterase (AChE); assay type: biochemical; conditions: at 100 µM
[7] = biological target: T2, superoxide dismutase (SOD); assay type: biochemical; conditions: at 100 µM
xanthine oxidase (XOD) [8] = biological target: T3, xanthine oxidase (XOD); assay type: biochemical; conditions: at 100 µM
α-amylase = biological target: T4, α-amylase (Homo sapiens, UniProt P04746); assay: Anti-α-amylase activity (starch/DNS)
T4 sequence (P04746 16-511): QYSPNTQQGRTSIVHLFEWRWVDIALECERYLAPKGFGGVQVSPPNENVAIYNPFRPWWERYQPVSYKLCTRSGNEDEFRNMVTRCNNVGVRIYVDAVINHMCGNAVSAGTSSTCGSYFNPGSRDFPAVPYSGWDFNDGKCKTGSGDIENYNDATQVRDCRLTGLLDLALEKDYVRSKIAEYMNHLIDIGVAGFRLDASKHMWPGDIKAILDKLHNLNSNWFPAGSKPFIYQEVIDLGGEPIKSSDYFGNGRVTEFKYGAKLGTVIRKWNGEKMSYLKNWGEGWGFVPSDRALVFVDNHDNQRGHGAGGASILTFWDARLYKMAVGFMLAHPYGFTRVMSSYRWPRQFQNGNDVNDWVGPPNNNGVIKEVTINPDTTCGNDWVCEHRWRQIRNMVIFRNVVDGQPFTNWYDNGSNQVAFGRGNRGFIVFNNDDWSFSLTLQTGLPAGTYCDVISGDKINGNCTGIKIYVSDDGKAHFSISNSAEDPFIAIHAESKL
Protocol: The α-amylase inhibitory activity (%) value was defined as the percentage decrease in the maltose production rate over the control. […] After 15 min, this mixture was removed from the water bath and diluted with 900 µL of distilled water. The anti-α-amylase activity was determined by measuring the absorbance at 540 nm. Blank incubations were determined as the absorbance produced by samples where the enzyme was replaced with a buffer solution. […] The IC50 values were calculated from the mean values of the percentage of α--amylase inhibition data, determined in triplicate.

SMILES	IC50 [1] [µM]	IC50 [2] [µM]	IC50 [3] [µM]	IC50 [4] [µM]	IC50 (xanthine oxidase (XOD) [5]) [µM]	IC50 (HCT116 cells) [µM]	IC50 (MCF7 cells) [µM]	IC50 (OVCAR-3 cells) [µM]	IC50 (SKOV-3 cells) [µM]	Anti ACHE % [6] [%]	Anti SOD % [7] [%]	Anti XOD % (xanthine oxidase (XOD) [8]) [%]	IC50 (α-amylase) [µM]	Anti α-Amylase % (α-amylase; at 100 µM) [%]	ABTS Assay % ([2]; at 100 µM) [%]
COc1ccc(-c2cc(=O)c3c(O)cc(O[C@@H]4O[C@H](CO[C@@H]5O[C@@H](C)[C@H](O)[C@@H](O)[C@H]5O)[C@@H](O)[C@H](O)[C@H]4O)cc3o2)cc1O [Molecule M19, 3′, 5,7-trihydroxy-4′-methoxyflavone 7-rutinoside]	> 100	> 50	> 100	> 50	> 100	> 50	> 50	> 50	40.1 ± 0.9	37.7 ± 4.6	57.8 ± 2.4	45.3 ± 3.2	3.7 ± 0.3	60.6 ± 4.8	
CC1OC(Oc2c(-c3cc(O)c(O)c(O)c3)oc3cc(O)cc(O)c3c2=O)C(O)C(O)C1O (stereo not shown) [Molecule M20, myricitrin dihydrate]	> 100	> 100	> 50	> 100	> 100	> 50	> 50	> 50	> 50	51.8 ± 3.5	42.4 ± 1.1	30.9 ± 2.5	> 100		20.3 ± 3.2
